The pIC50 is the negative decadic logarithm of the IC50, by convention in mol/L. Lower therefore signals a high IC50.

Results on 28 compounds are retold here after US8633204B2 (Pfizer Inc., priority 2006, dated 2014).

One assay concerns the target PI3-Kα (Mus musculus (Mouse), UniProt P42337). Description: PI3-Kα Biochemical Assay (fluorescence polarization kinase assay). Summed up: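 Co-expressed mouse p110/p85 PI3-Kα (4 nM stock) acting on PI(4,5)P2 (60 μM stock) with ATP/MgCl2 in HEPES pH 7.4 buffer, 35 min at room temperature, then EDTA stop. PI(3,4,5)P3 product detected by displacement of TAMRA-PIP3 from Grip1 PH domain (FP, 535/580 nm). IC50 from sigmoidal fit of % inhibition.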

In assay [1] the test system is PI3-K in BT20 cells (phosphorylation of AKT at serine 473). Nature of the assay: PI3-Kα Cellular Assay (AKT Ser473 phosphorylation ELISA in BT20 cells). In kind it is cell-based, human. The conditions noted are these: Homo sapiens, BT-20, pAKT Ser473 ELISA, 1 hour incubation. A digest of the protocol:
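Cells seeded overnight in 0.5% FBS, then exposed 1 h at 37 °C to an 11-concentration 1:3 dilution series, in duplicate.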
In general terms: ELISA stands for enzyme-linked immunosorbent assay.

pIC50: −log10 of the molar value.

Sequence of PI3-Kα (P42337 whole entry, the tested form may be a part): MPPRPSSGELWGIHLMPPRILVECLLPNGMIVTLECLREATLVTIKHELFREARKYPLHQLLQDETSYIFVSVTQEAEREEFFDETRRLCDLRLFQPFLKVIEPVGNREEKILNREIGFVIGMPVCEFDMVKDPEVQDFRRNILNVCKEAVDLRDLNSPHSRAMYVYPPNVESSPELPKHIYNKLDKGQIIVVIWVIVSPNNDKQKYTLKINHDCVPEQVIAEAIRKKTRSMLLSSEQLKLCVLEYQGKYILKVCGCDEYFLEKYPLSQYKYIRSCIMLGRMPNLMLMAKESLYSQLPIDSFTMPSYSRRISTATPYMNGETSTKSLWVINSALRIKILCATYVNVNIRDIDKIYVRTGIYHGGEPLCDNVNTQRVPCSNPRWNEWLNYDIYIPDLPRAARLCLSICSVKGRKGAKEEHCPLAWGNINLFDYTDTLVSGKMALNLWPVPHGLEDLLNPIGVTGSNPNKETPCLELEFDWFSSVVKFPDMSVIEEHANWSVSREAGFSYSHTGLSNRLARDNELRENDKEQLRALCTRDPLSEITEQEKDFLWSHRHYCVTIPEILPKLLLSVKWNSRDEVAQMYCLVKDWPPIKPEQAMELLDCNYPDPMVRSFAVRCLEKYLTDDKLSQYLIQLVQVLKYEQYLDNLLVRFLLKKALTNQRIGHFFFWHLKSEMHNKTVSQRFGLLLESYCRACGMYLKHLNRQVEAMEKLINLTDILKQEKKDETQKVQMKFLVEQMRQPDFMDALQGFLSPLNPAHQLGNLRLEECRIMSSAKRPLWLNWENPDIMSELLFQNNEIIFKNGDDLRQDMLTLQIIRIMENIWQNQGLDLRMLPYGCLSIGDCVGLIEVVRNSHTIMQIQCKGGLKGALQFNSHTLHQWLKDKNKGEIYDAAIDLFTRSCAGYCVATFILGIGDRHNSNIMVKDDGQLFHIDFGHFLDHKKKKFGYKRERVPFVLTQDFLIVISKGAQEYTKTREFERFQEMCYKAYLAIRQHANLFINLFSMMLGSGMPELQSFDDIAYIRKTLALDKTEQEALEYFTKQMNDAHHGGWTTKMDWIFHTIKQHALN
Sequence of PI3-Kα (P26450 whole entry partner, the tested form may be a part): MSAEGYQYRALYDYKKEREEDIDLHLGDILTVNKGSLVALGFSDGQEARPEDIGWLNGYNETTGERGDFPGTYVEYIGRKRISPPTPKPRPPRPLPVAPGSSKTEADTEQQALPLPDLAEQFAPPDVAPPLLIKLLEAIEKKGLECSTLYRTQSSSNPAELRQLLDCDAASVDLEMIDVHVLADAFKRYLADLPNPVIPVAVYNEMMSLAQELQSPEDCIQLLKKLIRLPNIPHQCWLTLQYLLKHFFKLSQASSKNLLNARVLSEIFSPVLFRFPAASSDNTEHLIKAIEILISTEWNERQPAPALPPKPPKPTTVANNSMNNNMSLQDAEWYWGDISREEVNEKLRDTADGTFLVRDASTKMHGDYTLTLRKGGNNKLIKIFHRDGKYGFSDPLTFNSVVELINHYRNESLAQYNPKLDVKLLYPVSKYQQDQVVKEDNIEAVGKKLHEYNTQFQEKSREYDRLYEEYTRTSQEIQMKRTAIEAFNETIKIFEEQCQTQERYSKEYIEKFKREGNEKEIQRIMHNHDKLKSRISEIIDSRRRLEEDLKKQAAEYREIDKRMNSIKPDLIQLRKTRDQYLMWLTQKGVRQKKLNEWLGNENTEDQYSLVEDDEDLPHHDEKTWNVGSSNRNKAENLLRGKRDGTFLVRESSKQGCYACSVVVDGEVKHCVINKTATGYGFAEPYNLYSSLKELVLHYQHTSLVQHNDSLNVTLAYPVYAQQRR

For the compound `COc1ccc(-c2cc3c(C)nc(N)nc3n(C3CCCC3)c2=O)cc1F` [Compound 262, 2-amino-8-cyclopentyl-6-(3-fluoro-4-methoxyphenyl)-4-methylpyrido[23-d]pyrimidin-7(8H)-one], the negative logarithm of the IC50 (pIC50) was 7.82 on PI3-Kα and 7.34 in assay [1].
The like results for `CCN(CC)C(=O)OCn1cc(-c2cc3c(C)nc(N)nc3n(C(C)C)c2=O)nn1` [Compound 263, (4-(2-Amino-8-isopropyl-4-methyl-7-oxo-7,8-dihydropyrido[2,3-d]pyrimidin-6-yl)-1H-1,2,3-triazol-1-yl)methyl diethylcarbamate] were, in that order, 5.48 and 5.00.
On the same counts, the results for `Cc1nc(N)nc2c1cc(-c1c[nH]nn1)c(=O)n2C(C)C` [Compound 264, 2-Amino-8-isopropyl-4-methyl-6-(1H-1,2,3-triazol-4-yl)pyrido[2,3-d]pyrimidin-7(8H)-one] are 7.21 and 6.25.
Consider `COc1ncc(-c2cc3c(C)nc(N)nc3n(C(C)C)c2=O)cn1` [Compound 266, 2-amino-8-isopropyl-6-(2-methoxypyrimidin-5-yl)-4-methylpyrido[2,3-d]pyrimidin-7(8H)-one], for which the negative-log IC50 (pIC50) against PI3-Kα was 8.66; in assay [1], 7.31.
As to `Cc1nc(N)nc2c1cc(-c1cnc(O)nc1)c(=O)n2C1CCOCC1` [Compound 267, 2-Amino-6-(2-hydroxypyrimidin-5-yl)-4-methyl-8-(tetrahydro-2H-pyran-4-yl)pyrido[2,3-d]pyrimidin-7(8H)-one], the pIC50 at PI3-Kα is 6.09; in assay [1], 5.00.
On the same counts, the results for `Cc1nc(N)nc2c1cc(-c1cnc(O)nc1)c(=O)n2C(C)C` [Compound 268, 2-amino-6-(2-hydroxypyrimidin-5-yl)-8-isopropyl-4-methylpyrido[2,3-d]pyrimidin-7(8H)-one] are 6.52 and 5.60.
`Cc1nc(N)nc2c1cc(C#N)c(=O)n2C1CCC1` [Compound 269, 2-Amino-8-cyclobutyl-4-methyl-7-oxo-7,8-dihydropyrido[2,3-d]pyrimidine-6-carbonitrile]: the negative-log IC50 (pIC50) at PI3-Kα was 7.02; in assay [1], 5.68.
On the same counts, the results for `C#Cc1cc2c(C)nc(N)nc2n(C2CCC2)c1=O` [Compound 270, 2-Amino-8-cyclobutyl-6-ethynyl-4-methylpyrido[2,3-d]pyrimidin-7(8H)-one] are 6.96 and 6.18.
On the same counts, the results for `Cc1nc(N)nc2c1cc(-c1cnc3ccccc3c1)c(=O)n2[C@H]1CC[C@H](O)CC1` [Compound 271, 2-amino-8-(trans-4-hydroxycyclohexyl)-4-methyl-6-(quinolin-3-yl)pyrido[2,3-d]pyrirnidin-7(8H)-one] are 8.09 and 7.38.
The like results for `COc1ccc(-c2cc3c(C)nc(NCC(F)F)nc3n([C@H]3CC[C@H](O)CC3)c2=O)cn1` [Compound 275, 2-(2,2-Difluoroethylamino)-8-(4-hydroxycyclohexyl)-6-(6-methoxypyridin-3-yl)-4-methylpyrido[2,3-d]pyrimidin-7(8H)-one] were, in that order, 7.92 and 7.33.
On to `CCNc1nc(C)c2cc(-c3cnc(OC)c(F)c3)c(=O)n([C@H]3CC[C@H](O)CC3)c2n1` [Compound 276, 2-(ethylamino)-6-(5-fluoro-6-methoxypyridin-3-yl)-8-(trans-4-hydroxycyclohexyl)-4-methylpyrido[2,3-d]pyrimidin-7(8H)-one], for which the negative-log IC50 (pIC50) is 9.10 on PI3-Kα and 8.29 in assay [1].
On the same counts, the results for `CCNc1nc(C)c2cc(-c3cnc(OC)nc3)c(=O)n([C@H]3CC[C@H](O)CC3)c2n1` [Compound 277, 2-(ethylamino)-8-(trans-4-hydroxycyclohexyl)-6-(2-methoxypyrimidin-5-yl)-4-methylpyrido[2,3-d]pyrimidin-7(8H)-one] are 8.80 and 7.69.
The like results for `CCn1nccc1NC(=O)c1cc2c(C)nc(N)nc2n([C@H]2CC[C@H](O)CC2)c1=O` [Compound 278, 2-amino-N-(1-ethyl-1H-pyrazol-5-yl)-8-(trans-4-hydroxycyclohexyl)-4-methyl-7-oxo-78-dihydropyrido[23-d]pyrimidine-6-carboxamide] were, in that order, 8.89 and 7.30.
For the compound `Cc1nc(N)nc2c1cc(C(=O)Nc1ccn[nH]1)c(=O)n2C(C)C` [Compound 279, 2-amino-8-isopropyl-4-methyl-7-oxo-N-1H-pyrazol-5-yl-7,8-dihydropyrido[2,3-d]pyrimidine-6-carboxamide], the negative-log IC50 (pIC50) on PI3-Kα is 8.54; in assay [1] it was 7.52.
The like results for `CCn1cc(CNC(=O)c2cc3c(C)nc(NC)nc3n(C3CCCC3)c2=O)cn1` [Compound 281, 8-cyclopentyl-N-[(1-ethyl-1H-pyrazol-4-yl)methyl]-4-methyl-2-(methylamino)-7-oxo-7,8-dihydropyrido[2,3-d]pyrimidine-6-carboxamide] were, in that order, 5.92 and below 5.00.
On the same counts, the results for `CNc1nc(C)c2cc(C(=O)Nc3ccon3)c(=O)n(C3CCCC3)c2n1` [Compound 283, 8-cyclopentyl-N-isoxazol-3-yl-4-methyl-2-(methylamino)-7-oxo-7,8-dihydropyrido[2,3-d]pyrimidine-6-carboxamide] are 8.30 and 7.14.
On the same counts, the results for `COc1ncc(-c2cc3c(C)nc(N)nc3n([C@H]3CC[C@H](OCCO)CC3)c2=O)cn1` [Compound 287, 2-amino-8-[trans-4-(2-hydroxyethoxy)cyclohexyl]-6-(2-methoxypyrimidin-5-yl)-4-methylpyrido[2,3-d]pyrimidin-7(8H)-one] are 8.66 and 7.41.
On to `COc1ncc(-c2cc3c(C)nc(N)nc3n([C@H]3CC[C@H](OCCO)CC3)c2=O)cc1F` [Compound 288, 2-amino-6-(5-fluoro-6-methoxypyridin-3-yl)-8-[trans-4-(2-hydroxyethoxy)cyclohexyl]-4-methylpyrido[2,3-d]pyrimidin-7(8H)-one], for which the pIC50 against PI3-Kα is 8.84; in assay [1] it was 8.28.
With `Cc1nc(N)nc2c1cc(Br)c(=O)n2[C@H]1CC[C@H](OCCO)CC1` [Compound 291, 2-amino-6-bromo-8-[trans-4-(2-hydroxyethoxy)cyclohexyl]-4-methylpyrido[2,3-d]pyrimidin-7(8H)-one], the pIC50 on PI3-Kα is 7.26; in assay [1], 7.02.
Regarding `Cc1nc(N)nc2c1cc(-c1ccc(N(C)C)nc1)c(=O)n2[C@H]1CC[C@H](OCCO)CC1` [Compound 292], the negative logarithm of the IC50 (pIC50) was 8.03 at PI3-Kα and 7.92 in assay [1].
The like results for `COc1ncc(-c2cc3c(C)nc(N)nc3n([C@H]3CC[C@@H](OCCO)CC3)c2=O)cn1` [Compound 293, 2-amino-8-[cis-4-(2-hydroxyethoxy)cyclohexyl]-6-(2-methoxypyrimidin-5-yl)-4-methylpyrido[2,3-d]pyrimidin-7(8H)-one] were, in that order, 8.27 and 7.82.
As for `Cc1nc(N)nc2c1cc(-c1cn[nH]c1)c(=O)n2[C@H]1CC[C@@H](OCCO)CC1` [Compound 296, 2-amino-8-[cis-4-(2-hydroxyethoxy)cyclohexyl]-4-methyl-6-(1H-pyrazol-4-yl)pyrido[2,3-d]pyrimidin-7(8H)-one], the pIC50 was 7.53 on PI3-Kα and 8.04 in assay [1].
In the case of `COc1ccc(-c2cc3c(C)nc(N)nc3n([C@H]3CC[C@H](OC[C@@H](O)CO)CC3)c2=O)cn1` [Compound 300, 2-amino-8-(trans-4-{[(2S)-2,3-dihydroxypropyl]oxy}cyclohexyl)-6-(6-methoxypyridin-3-yl)-4-methylpyrido[2,3-d]pyrimidin-7(8H)-one], the pIC50 was 8.17 at PI3-Kα and 7.88 in assay [1].
As for `Cc1nc(N)nc2c1cc(-c1cnn(C)c1)c(=O)n2[C@H]1CC[C@H](OCCO)CC1` [Compound 302, 2-amino-8-[trans-4-(2-hydroxyethoxy)cyclohexyl]-4-methyl-6-(1-methyl-1H-pyrazol-4-yl)pyrido[2,3-d]pyrimidin-7(8H)-one], the pIC50 against PI3-Kα is 7.65; in assay [1], 6.65.
The like results for `COc1ccc(-c2cc3c(C)nc(N)nc3n([C@H]3C[C@H](OCCO)C3)c2=O)cn1` [Compound 314, 2-amino-8-(trans-3-(2-hydroxyethoxy)cyclobutyl]-6-(6-methoxypyridin-3-yl)-4-methylpyrido[2,3-d]pyrimidin-7(8H)-one] were, in that order, 7.99 and 7.29.
On to `COc1ncc(-c2cc3c(C)nc(N)nc3n([C@H]3C[C@H](OCCO)C3)c2=O)cc1F` [Compound 315, 2-amino-6-(5-fluoro-6-methoxypyridin-3-yl)-8-[trans-3-(2-hydroxyethoxy)cyclobutyl]-4-methylpyrido[2,3-d]pyrimidin-7(8H)-one], for which the pIC50 is 8.51 at PI3-Kα and 7.84 in assay [1].
The like results for `COc1ncc(-c2cc3c(C)nc(N)nc3n([C@H]3C[C@H](OCCO)C3)c2=O)cn1` [Compound 316, 2-amino-8-[trans-3-(2-hydroxyethoxy)cyclobutyl]-6-(2-methoxypyrimidin-5-yl)-4-methylpyrido[2,3-d]pyrimidin-7(8H)-one] were, in that order, 8.18 and 7.03.
For `COc1ccc(-c2cc3c(C)nc(N)nc3n([C@H]3C[C@H](OCC(N)=O)C3)c2=O)cn1` [Compound 317, 2-({trans-3-[2-amino-6-(6-methoxypyridin-3-yl)-4-methyl-7-oxopyrido[2,3-d]pyrimidin-8(7H)-yl]cyclobutyl}oxy)acetamide], the values for the pIC50 (on PI3-Kα; in assay [1]) were 8.33 and 7.47, respectively.
